Assay results published in patent US9890126B2 (priority 2012, dated 2018).
Where two headings read alike, the source gives them in different places. Marks after values point to notes of the source that are not given here.

Columns and labels:
IspF = IspF (Burkholderia pseudomallei, UniProt Q3JRA0); test: biochemical; assay type: binding
Burkholderia [1] = conditions: relative to DMSO control; 0.00 = growth with inhibitor equal to or greater than DMSO control
B. pseudomallei = assay type: cell-based, Burkholderia pseudomallei; conditions: for concentration effects on growth of B. pseudomallei over time: 1 mM to 31.25 μM, FIGS. 3-10, strains 1026b and 340
Burkholderia [2] = test: microbe, parasite or virus in culture; conditions: read-out: inhibition against Burkholderia
Plasmodium falciparum = test: Antimalarial initial tests, three strains of drug resistant malaria; conditions: all three strains of drug resistant malaria

IspF, sequence (Q3JRA0 whole entry, looked up): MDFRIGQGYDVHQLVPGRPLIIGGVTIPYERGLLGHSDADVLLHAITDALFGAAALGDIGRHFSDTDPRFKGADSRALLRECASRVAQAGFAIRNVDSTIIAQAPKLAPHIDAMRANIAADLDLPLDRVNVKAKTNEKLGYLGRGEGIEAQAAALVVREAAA

Row | Structure (SMILES) | Kd (IspF; pH 7.4) | % Growth Inhibition Endpoint (24 h) (Burkholderia [1]) | % Growth Inhibition Growth Curve (Burkholderia [1]) [%] | also measured
1 | CCOC(=O)c1cnc(Nc2ccc3[nH]ncc3c2)[nH]c1=O [HGN-0042, Ethyl 2-((1H-indazol-5-yl)amino)-6-oxo-1,6-dihydropyrimidine-5-carboxylate] | not soluble | 20.70 ± 0.71% | – | –
2 | Oc1ccc(-n2ccnc2)cc1 [HGN-0029] | – | – | 23.58 ± 0.54 | concentration effects on growth of B. pseudomallei over time (B. pseudomallei): did not inhibit the growth
3 | O=C([O-])c1cnc(Nc2ccc3[nH]ncc3c2)nc1[O-].[Na+].[Na+] [HGN-0046, Sodium 2-((1H-indazol-5-yl)amino)-4-oxoidopyrimidine-5-carboxylate] | non specific | 15.12 ± 4.25% | – | –
4 | Oc1ccc(-c2cncn2CCc2c[nH]c3ccccc23)cc1 [HGN-0020] | – | – | 1.26 ± 2.33 | Kd (IspF): 204 µM
5 | CCOC(=O)c1cnc(Nc2ccc(CC(=O)O)cc2)[nH]c1=O [HGN-0041, 2-(4-((5-(ethoxycaronyl)-6-oxo-1,6-dihydropyrimidin-2-yl)amino)phenyl)acetic acid] | not soluble | 0.00^b % | – | –
6 | O=C(O)c1cnc(NCCc2ccc(Cl)cc2Cl)nc1O [HGN-0118] | – | – | – | inhibition at 1000 µM (Burkholderia [2]): 94.5%
7 | O=C([O-])c1cnc(NCc2ccco2)nc1[O-].[Na+].[Na+] [HGN-0049] | – | 12.25 ± 0.40% | – | antimalarial potency in initial tests (Plasmodium falciparum): submicromolar
8 | Oc1ccc(-c2cncn2CCc2ccc(Cl)cc2)cc1 [HGN-0051] | – | 0.00^b % | – | antimalarial potency in initial tests (Plasmodium falciparum): potent
9 | O=C([O-])c1cnc(Nc2ccc(-c3ccncc3)cc2)nc1[O-].[Na+].[Na+] [HGN-0013] | non-specific | – | 6.26 ± 1.00 | –
10 | O=C([O-])c1cnc(NCCc2ccc(Cl)cc2)nc1[O-].[Na+].[Na+] [HGN-0028] | – | – | 68.20 ± 2.12 | Kd (IspF): 305 µM; concentration effects on growth of B. pseudomallei over time (B. pseudomallei): dose dependent; growth of B. pseudomallei over time (B. pseudomallei; FIG. 2): inhibited the growth; B. pseudomallei growth inhibition at lower concentrations (B. pseudomallei; lower concentrations): did not inhibit
11 | O=C(O)c1cnc(Nc2ccc(-c3ccccc3)cc2)[nH]c1=O [HGN-0035, 2-((1,1′-biphenyl)-4-ylamino)-6-oxo-1,6-dihydropyrimidine-5-carboxylic acid] | not soluble | 91.14 ± 1.18% | – | –
